{"source": "patent US20230241064A1", "about": "“METHODS OF TREATMENT AND/OR PREVENTION OF MAJOR ADVERSE CARDIOVASCULAR EVENTS (MACE) WITH A COMBINATION OF A BET BROMODOMAIN INHIBITOR AND A DIPEPTIDYL PEPTIDASE 4 INHIBITOR” (Resverlogix Corp., priority 2020, published 2023)", "key": {"[1]": {"settings": "vs placebo; TECOS trial; cited from earlier work"}, "[2]": {"system": "type 2 diabetes patients with low HDL cholesterol and a recent acute coronary syndrome (ACS)", "experiment": "BETonMACE Phase 3 trial post-hoc analysis: cumulative incidence of narrowly defined MACE", "assay_type": "in vivo, human", "quoted_text": "Patients (n=2425) with ACS in the preceding 7 to 90 days, with type 2 diabetes and low HDL cholesterol (≤40 mg/dl for men, ≤45 mg/dl for women), receiving intensive or maximum-tolerated therapy with atorvastatin or rosuvastatin, were assigned in double-blind fashion to receive apabetalone 100 mg orally twice daily or matching placebo. Baseline characteristics include female sex (25%), myocardial infarction as index ACS event (74%), coronary revascularization for index ACS (76%), treatment with dual anti-platelet therapy (87%) and renin-angiotensin system inhibitors (91%), median LDL cholesterol 65 mg per deciliter, and median HbA1c 7.3%. The primary efficacy measure is time to first occurrence of cardiovascular death, non-fatal myocardial infarction, or stroke. Assumptions include a primary event rate of 7% per annum in the placebo group and median follow-up of 1.5 years. Patients were followed until at least 250 primary endpoint events had occurred, providing 80% power to detect a 30% reduction in the primary endpoint with apabetalone.\nThose patients who received at least one dose of DPP-4 inhibitor treatment after the date of the first incidence of event were censored as non-MACE events and the date of last contact was used as the censoring date.\nThe distributions of the endpoints within the apabetalone and placebo groups were compared using a two-sided log-rank test (LRT) with an alpha=0.05 level of significance. The cumulative incidence is shown as 1-KM (Kaplan-Meier) estimate for event rate."}, "[3]": {"system": "type 2 diabetes patients with low HDL cholesterol and a recent acute coronary syndrome (ACS)", "experiment": "BETonMACE post-hoc analysis: cumulative incidence of non-fatal myocardial infarction", "assay_type": "in vivo, human", "settings": "patients without DPP-4 inhibitor; vs placebo (non-treatment); FIG. 8", "procedure": "(§1) Apabetalone (RVX-208) was evaluated in a recently completed clinical Phase 3 trial (BETonMACE; NCT02586155) for the effect on MACE in type 2 diabetes patients with low HDL cholesterol (below 40 mg/dL for males and below 45 mg/dL for females) and a recent acute coronary syndrome (ACS). All patients received high intensity statin treatment, which was 20-40 mg daily or a maximum daily dose of 40 mg for rosuvastatin or 40-80 mg daily or a maximum daily dose of 80 mg for atorvastatin.\n(§2) Patients (n=2425) with ACS in the preceding 7 to 90 days, with type 2 diabetes and low HDL cholesterol (≤40 mg/dl for men, ≤45 mg/dl for women), receiving intensive or maximum-tolerated therapy with atorvastatin or rosuvastatin, were assigned in double-blind fashion to receive apabetalone 100 mg orally twice daily or matching placebo. Baseline characteristics include female sex (25%), myocardial infarction as index ACS event (74%), coronary revascularization for index ACS (76%), treatment with dual anti-platelet therapy (87%) and renin-angiotensin system inhibitors (91%), median LDL cholesterol 65 mg per deciliter, and median HbA1c 7.3%. The primary efficacy measure is time to first occurrence of cardiovascular death, non-fatal myocardial infarction, or stroke. Assumptions include a primary event rate of 7% per annum in the placebo group and median follow-up of 1.5 years. […]"}, "[4]": {"system": "type 2 diabetes patients with low HDL cholesterol and a recent acute coronary syndrome (ACS)", "experiment": "BETonMACE post-hoc analysis: cumulative incidence of cardiovascular death", "assay_type": "in vivo, human", "settings": "patients without DPP-4 inhibitor; vs placebo (non-treatment); FIG. 11", "procedure": "as §1, §2"}, "[5]": {"system": "type 2 diabetes patients with low HDL cholesterol and a recent acute coronary syndrome (ACS)", "experiment": "BETonMACE post-hoc analysis: cumulative incidence of broadly defined MACE", "assay_type": "in vivo, human", "settings": "patients without DPP-4 inhibitor; vs placebo (non-treatment); FIG. 5"}, "[6]": {"system": "type 2 diabetes patients with low HDL cholesterol and a recent acute coronary syndrome (ACS)", "experiment": "BETonMACE post-hoc analysis: cumulative incidence of hospitalization for congestive heart failure", "assay_type": "in vivo, human", "settings": "patients without DPP-4 inhibitor, vs placebo (non-treatment)"}, "[7]": {"settings": "EXAMINE; cited from earlier work"}}, "data": [{"smiles": "N[C@@H](CC(=O)N1CCn2c(nnc2C(F)(F)F)C1)Cc1cc(F)c(F)cc1F", "note": "[sitagliptin]", "values": [{"measurement": "hazard ratio (HR), 3-point MACE composite outcome", "setting": "[1]", "value": 0.99}, {"measurement": "hazard ratio (HR), 4-point MACE composite outcome", "setting": "[1]", "value": 0.98}]}, {"smiles": "COc1cc(OC)c2c(=O)[nH]c(-c3cc(C)c(OCCO)c(C)c3)nc2c1", "note": "[apabetalone, 2-(4-(2-hydroxyethoxy)-3,5-dimethylphenyl)-5,7-dimethoxyquinazolin-4(3H)-one]", "values": [{"measurement": "number of primary end points (narrowly defined MACE: cardiovascular death, non-fatal myocardial infarction, or stroke)", "setting": "[2]; apabetalone 100 mg orally twice daily, on statin, per treatment group", "value": 114}, {"measurement": "Kaplan-Meier estimated event rate, narrowly defined MACE", "setting": "[2]; at 18 months", "value": 8.0, "unit": "%"}, {"measurement": "Hazard Ratio, narrowly defined MACE", "setting": "[2]; patients without DPP-4 inhibitor, vs placebo (non-treatment), FIG. 2", "value": 0.99}, {"measurement": "primary end points (narrowly defined MACE) as percent of group", "setting": "[2]; per treatment group", "value": 10.9, "unit": "%"}, {"measurement": "Hazard Ratio, non-fatal myocardial infarction", "setting": "[3]", "value": 0.99}, {"measurement": "Hazard Ratio, cardiovascular death", "setting": "[4]", "value": 0.97}, {"measurement": "Hazard Ratio, broadly defined MACE", "setting": "[5]", "value": 1.00}, {"measurement": "reduction of number of patients having a hospitalization for congestive heart failure event at any given time", "setting": "[6]", "value": 27, "unit": "%"}, {"measurement": "Hazard Ratio, hospitalization for congestive heart failure", "setting": "[6]; FIG. 14", "value": 0.73}]}, {"smiles": "Cn1c(=O)cc(N2CCC[C@@H](N)C2)n(Cc2ccccc2C#N)c1=O", "note": "[alogliptin]", "values": [{"measurement": "effect on the 3-point MACE composite outcome of cardiovascular death, myocardial infarction, or ischemic stroke", "setting": "[7]", "value": "neutral effect"}]}]}
